Laboratory results published in ChEMBL document CHEMBL4507326, “Data for DCP probe TP-030-2” (2021).

Legend:
[1] = target: SRSF protein kinase 1 (Homo sapiens, UniProt Q96SB4); assay: SRPK1(SRP1IHRL) Takeda global kinase panel
[2] = target: Ephrin type-A receptor 1 (Homo sapiens, UniProt P21709); assay: EphA1(EPA1LGY1) Takeda global kinase panel
[3] = target: Tyrosine-protein kinase receptor UFO (Homo sapiens, UniProt P30530); assay: Axl(AXL1LGY1) Takeda global kinase panel
[4] = target: Leukocyte tyrosine kinase receptor (Homo sapiens, UniProt P29376); assay: LTK(LTK1LGF1) Takeda global kinase panel
[5] = target: Muscarinic acetylcholine receptor M2 (Homo sapiens) (UniProt P08172); settings: Compound concentration 10.0 uM
[6] = target: Cyclin-dependent kinase 17 (Homo sapiens, UniProt Q00537); assay: PCTAIRE2(CD17SGS1) Takeda global kinase panel
[7] = target: Protein kinase C epsilon type (Homo sapiens, UniProt Q02156); assay: PKCepsilon(PRKELHY1) Takeda global kinase panel
[8] = target: Cyclin-dependent kinase 16 (Homo sapiens, UniProt Q00536); assay: PCTAIRE1(CD16SGS1) Takeda global kinase panel
[9] = target: Serine/threonine-protein kinase RIO2 (Homo sapiens, UniProt Q9BVS4); assay: RIOK2(RIO2LGF1) Takeda global kinase panel
[10] = target: Epidermal growth factor receptor (Homo sapiens, UniProt P00533); assay: Inhibition of Epidermal Growth Factor (EGF) at 10 µM in the Eurofins-Panlabs radioligand binding assay (Eurofins_assay_225510); settings: Compound concentration 10.0 uM
[11] = target: Alpha-2A adrenergic receptor (Homo sapiens) (UniProt P08913); settings: Compound concentration 10.0 uM
[12] = target: Casein kinase I isoform gamma-3 (Homo sapiens, UniProt Q9Y6M4); assay: CK1gamma3(C1G3LGI5) Takeda global kinase panel
[13] = target: Mitogen-activated protein kinase 15 (Homo sapiens, UniProt Q8TD08); assay: ERK7(MP15LGY1) Takeda global kinase panel
[14] = target: Proto-oncogene tyrosine-protein kinase ROS (Homo sapiens, UniProt P08922); assay: Ros(ROS1PHY1) Takeda global kinase panel
[15] = target: Protein kinase C zeta type (Homo sapiens, UniProt Q05513); assay: PKCzeta(PRKZLGP1) Takeda global kinase panel
[16] = target: Protein-tyrosine kinase 6 (Homo sapiens, UniProt Q13882); assay: Brk(PTK6LGY1) Takeda global kinase panel
[17] = target: Dual specificity protein kinase CLK4 (Homo sapiens, UniProt Q9HAZ1); assay: CLK4(CLK4IGF1) Takeda global kinase panel
[18] = target: Tyrosine-protein kinase BTK (Homo sapiens, UniProt Q06187); assay: BTK(BTK1CGF1) Takeda global kinase panel
[19] = target: Rho-associated protein kinase 2 (Homo sapiens, UniProt O75116); assay: ROCK2(ROC2LGG1) Takeda global kinase panel
[20] = target: Cyclin-dependent kinase 3 (Homo sapiens, UniProt Q00526); assay: CDK3(CDK3CGS1) Takeda global kinase panel
[21] = target: Muscarinic acetylcholine receptor M4 (Homo sapiens) (UniProt P08173); settings: Compound concentration 10.0 uM
[22] = target: Mitogen-activated protein kinase 10 (Homo sapiens, UniProt P53779); assay: JNK3(MP10LGF2) Takeda global kinase panel
[23] = target: Tyrosine-protein kinase ABL2 (Homo sapiens, UniProt P42684); assay: Arg(ABL2LGF1) Takeda global kinase panel
[24] = target: ATP-sensitive inward rectifier potassium channel 11 (Cricetulus griseus) (UniProt A0A3L7HHE1); assay: Inhibition of Potassium Channel [KATP] at 10 µM in the Eurofins-Panlabs radioligand binding assay (Eurofins_assay_265600); settings: Cricetinae; Compound concentration 10.0 uM
[25] = target: Death-associated protein kinase 2 (Homo sapiens, UniProt Q9UIK4); assay: DAPK2(DAP2LGF1) Takeda global kinase panel
[26] = target: Cyclin-dependent kinase 6 (Homo sapiens, UniProt Q00534); assay: CDK6(CDK6CGS1) Takeda global kinase panel
[27] = target: Ankyrin repeat and protein kinase domain-containing protein 1 (Homo sapiens, UniProt Q8NFD2); assay: SgK288(ANK1LGRL) Takeda global kinase panel
[28] = target: Mu-type opioid receptor (Homo sapiens) (UniProt P35372); settings: Compound concentration 10.0 uM
[29] = target: T1, GABA-A receptor; anion channel (Rattus norvegicus) (UniProt O09028+P15431+P18506+P18508+P19969+P20236+P23574+P23576+P28471+P28473+P30191+P62813+P63079+P63138+Q91ZM7+Q9ES14); settings: Compound concentration 10.0 uM
[30] = target: Receptor-interacting serine/threonine-protein kinase 2 (Homo sapiens, UniProt O43353); assay: RIPK2(RIP2LGI1) Takeda global kinase panel
[31] = target: Adenosine receptor A1 (Homo sapiens) (UniProt P30542); settings: Compound concentration 10.0 uM
[32] = target: Tyrosine-protein kinase FRK (Homo sapiens, UniProt P42685); assay: FRK(FRK1LGF1) Takeda global kinase panel
[33] = target: Myosin light chain kinase family member 4 (Homo sapiens, UniProt Q86YV6); assay: SgK085(SG85LGY1) Takeda global kinase panel
[34] = target: Homeodomain-interacting protein kinase 1 (Homo sapiens, UniProt Q86Z02); assay: HIPK1(HIP1LGF1) Takeda global kinase panel
[35] = target: Substance-P receptor (Homo sapiens) (UniProt P25103); assay: Inhibition of Tachykinin NK1 at 10 µM in the Eurofins-Panlabs radioligand binding assay (Eurofins_assay_255520); set-up: ligand concentration 0.8 nM; settings: Compound concentration 10.0 uM
[36] = target: MAP kinase-activated protein kinase 5 (Homo sapiens, UniProt Q8IW41); assay: MAPKAPK5(MPK5LGN1) Takeda global kinase panel
[37] = target: Mitogen-activated protein kinase 6 (Homo sapiens, UniProt Q16659); assay: ERK3(MAP6LHY1) Takeda global kinase panel
[38] = target: D(2) dopamine receptor (Homo sapiens) (UniProt P14416); settings: Compound concentration 10.0 uM
[39] = target: D(3) dopamine receptor (Homo sapiens) (UniProt P35462); settings: Compound concentration 10.0 uM
[40] = target: Alpha-1D adrenergic receptor (Homo sapiens) (UniProt P25100); assay: Inhibition of Adrenergic alpha1D at 10 µM in the Eurofins-Panlabs radioligand binding assay (Eurofins_assay_203400); settings: Compound concentration 10.0 uM
[41] = target: Serine/threonine-protein kinase D1 (Homo sapiens, UniProt Q15139); assay: PKD1(PRD1LHY1) Takeda global kinase panel
[42] = target: T1, GABA-A receptor; anion channel (Rattus norvegicus); settings: Compound concentration 10.0 uM; remark: listed apart in the source

Chain of Myosin light chain kinase family member 4 (Q86YV6 whole entry): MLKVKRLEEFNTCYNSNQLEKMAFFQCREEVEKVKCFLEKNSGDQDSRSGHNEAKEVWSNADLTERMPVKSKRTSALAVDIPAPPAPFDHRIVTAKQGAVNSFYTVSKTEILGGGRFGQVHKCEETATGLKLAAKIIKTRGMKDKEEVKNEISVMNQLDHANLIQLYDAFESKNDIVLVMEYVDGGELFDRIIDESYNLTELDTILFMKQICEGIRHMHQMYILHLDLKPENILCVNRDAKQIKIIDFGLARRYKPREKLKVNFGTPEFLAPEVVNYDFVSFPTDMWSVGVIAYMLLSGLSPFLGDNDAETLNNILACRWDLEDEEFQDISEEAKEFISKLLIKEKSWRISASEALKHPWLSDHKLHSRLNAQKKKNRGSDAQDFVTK
Chain of Leukocyte tyrosine kinase receptor (P29376 whole entry): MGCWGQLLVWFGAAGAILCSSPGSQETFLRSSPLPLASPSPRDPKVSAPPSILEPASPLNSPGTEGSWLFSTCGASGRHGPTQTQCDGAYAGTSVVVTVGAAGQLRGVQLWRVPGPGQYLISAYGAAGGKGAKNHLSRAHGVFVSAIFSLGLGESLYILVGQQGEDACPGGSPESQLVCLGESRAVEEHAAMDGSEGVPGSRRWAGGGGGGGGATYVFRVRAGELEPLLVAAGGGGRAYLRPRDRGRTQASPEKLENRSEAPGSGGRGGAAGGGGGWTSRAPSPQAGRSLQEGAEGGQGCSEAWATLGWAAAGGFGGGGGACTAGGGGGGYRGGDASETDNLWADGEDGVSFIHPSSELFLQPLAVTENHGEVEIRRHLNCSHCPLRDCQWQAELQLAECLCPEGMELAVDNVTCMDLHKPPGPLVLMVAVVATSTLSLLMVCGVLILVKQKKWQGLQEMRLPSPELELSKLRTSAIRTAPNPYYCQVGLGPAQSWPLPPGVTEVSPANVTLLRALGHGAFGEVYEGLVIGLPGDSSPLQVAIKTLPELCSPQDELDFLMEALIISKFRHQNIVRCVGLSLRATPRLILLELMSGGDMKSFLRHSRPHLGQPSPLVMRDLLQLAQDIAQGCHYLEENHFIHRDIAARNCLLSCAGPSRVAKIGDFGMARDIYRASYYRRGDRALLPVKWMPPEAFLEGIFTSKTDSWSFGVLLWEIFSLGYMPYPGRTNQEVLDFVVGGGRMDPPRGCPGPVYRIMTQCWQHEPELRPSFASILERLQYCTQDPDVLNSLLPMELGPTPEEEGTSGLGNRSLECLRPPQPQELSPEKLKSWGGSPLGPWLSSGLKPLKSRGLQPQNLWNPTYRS
Chain of Tyrosine-protein kinase ABL2 (P42684 whole entry): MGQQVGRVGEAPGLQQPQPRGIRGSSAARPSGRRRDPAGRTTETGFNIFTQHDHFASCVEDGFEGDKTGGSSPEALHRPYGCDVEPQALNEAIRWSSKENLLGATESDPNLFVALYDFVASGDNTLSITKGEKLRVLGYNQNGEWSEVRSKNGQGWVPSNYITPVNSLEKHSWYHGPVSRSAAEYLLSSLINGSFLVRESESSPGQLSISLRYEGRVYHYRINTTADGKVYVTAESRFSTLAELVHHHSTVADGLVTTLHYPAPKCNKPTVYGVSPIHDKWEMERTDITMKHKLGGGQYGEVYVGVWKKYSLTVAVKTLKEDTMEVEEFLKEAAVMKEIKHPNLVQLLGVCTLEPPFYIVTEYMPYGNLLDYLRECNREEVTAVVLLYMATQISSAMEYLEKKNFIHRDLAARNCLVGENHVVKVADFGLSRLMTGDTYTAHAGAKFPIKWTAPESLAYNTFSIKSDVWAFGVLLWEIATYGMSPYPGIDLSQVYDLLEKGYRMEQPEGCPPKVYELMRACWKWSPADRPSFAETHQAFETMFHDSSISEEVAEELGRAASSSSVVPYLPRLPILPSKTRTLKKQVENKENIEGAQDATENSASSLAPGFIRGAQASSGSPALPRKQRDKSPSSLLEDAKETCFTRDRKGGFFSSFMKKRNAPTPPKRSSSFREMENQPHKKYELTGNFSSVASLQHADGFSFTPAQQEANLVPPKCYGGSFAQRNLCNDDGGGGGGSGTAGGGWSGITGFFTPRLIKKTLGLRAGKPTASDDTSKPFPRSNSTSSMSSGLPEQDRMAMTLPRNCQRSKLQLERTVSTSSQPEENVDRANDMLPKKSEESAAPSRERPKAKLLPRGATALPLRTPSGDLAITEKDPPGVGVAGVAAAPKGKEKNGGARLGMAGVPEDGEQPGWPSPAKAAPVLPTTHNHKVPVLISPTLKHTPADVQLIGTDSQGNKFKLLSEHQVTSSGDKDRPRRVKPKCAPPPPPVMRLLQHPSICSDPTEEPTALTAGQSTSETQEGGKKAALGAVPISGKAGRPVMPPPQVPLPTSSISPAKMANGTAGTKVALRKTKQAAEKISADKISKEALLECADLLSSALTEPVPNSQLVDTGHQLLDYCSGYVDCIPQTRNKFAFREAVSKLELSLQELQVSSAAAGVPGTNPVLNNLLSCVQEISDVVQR
Chain of Casein kinase I isoform gamma-3 (Q9Y6M4 whole entry, canonical isoform): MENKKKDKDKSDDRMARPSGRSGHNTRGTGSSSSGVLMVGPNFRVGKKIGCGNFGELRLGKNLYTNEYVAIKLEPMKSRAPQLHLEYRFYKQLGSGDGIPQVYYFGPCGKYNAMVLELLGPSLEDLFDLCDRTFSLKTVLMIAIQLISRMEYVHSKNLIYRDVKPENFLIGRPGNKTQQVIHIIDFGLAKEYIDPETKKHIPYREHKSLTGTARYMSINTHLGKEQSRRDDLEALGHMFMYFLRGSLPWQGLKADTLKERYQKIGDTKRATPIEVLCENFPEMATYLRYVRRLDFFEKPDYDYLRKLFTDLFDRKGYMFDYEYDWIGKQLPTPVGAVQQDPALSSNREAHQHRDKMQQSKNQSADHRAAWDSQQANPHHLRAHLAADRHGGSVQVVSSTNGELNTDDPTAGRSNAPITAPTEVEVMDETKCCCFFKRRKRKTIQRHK
Chain of Dual specificity protein kinase CLK4 (Q9HAZ1 whole entry): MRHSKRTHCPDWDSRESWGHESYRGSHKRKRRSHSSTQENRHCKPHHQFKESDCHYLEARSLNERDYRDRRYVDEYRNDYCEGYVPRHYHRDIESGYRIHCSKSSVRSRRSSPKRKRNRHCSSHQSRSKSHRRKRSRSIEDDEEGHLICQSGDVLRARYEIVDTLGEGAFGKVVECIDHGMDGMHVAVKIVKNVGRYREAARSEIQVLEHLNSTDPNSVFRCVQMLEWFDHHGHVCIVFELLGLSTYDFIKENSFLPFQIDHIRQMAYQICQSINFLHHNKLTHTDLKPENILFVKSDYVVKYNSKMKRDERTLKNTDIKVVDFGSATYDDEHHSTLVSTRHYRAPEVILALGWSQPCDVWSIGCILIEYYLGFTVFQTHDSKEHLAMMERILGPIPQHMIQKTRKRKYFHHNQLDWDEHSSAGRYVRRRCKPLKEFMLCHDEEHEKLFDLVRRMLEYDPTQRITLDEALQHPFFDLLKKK
Chain of Receptor-interacting serine/threonine-protein kinase 2 (O43353 whole entry): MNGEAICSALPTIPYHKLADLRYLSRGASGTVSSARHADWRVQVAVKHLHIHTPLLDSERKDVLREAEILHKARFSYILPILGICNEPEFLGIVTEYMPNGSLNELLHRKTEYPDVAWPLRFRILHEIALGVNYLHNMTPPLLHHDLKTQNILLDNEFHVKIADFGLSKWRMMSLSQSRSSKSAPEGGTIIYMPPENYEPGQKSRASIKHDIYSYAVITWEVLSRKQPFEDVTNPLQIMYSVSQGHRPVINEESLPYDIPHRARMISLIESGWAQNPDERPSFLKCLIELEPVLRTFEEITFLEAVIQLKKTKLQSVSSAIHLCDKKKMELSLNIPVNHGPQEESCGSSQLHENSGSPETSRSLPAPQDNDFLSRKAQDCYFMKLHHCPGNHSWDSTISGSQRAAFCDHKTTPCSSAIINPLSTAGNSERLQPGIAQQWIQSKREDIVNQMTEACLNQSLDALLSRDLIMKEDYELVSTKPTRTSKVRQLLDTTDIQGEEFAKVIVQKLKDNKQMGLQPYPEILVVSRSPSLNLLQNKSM
Chain of Cyclin-dependent kinase 6 (Q00534 whole entry, the tested form may be a part): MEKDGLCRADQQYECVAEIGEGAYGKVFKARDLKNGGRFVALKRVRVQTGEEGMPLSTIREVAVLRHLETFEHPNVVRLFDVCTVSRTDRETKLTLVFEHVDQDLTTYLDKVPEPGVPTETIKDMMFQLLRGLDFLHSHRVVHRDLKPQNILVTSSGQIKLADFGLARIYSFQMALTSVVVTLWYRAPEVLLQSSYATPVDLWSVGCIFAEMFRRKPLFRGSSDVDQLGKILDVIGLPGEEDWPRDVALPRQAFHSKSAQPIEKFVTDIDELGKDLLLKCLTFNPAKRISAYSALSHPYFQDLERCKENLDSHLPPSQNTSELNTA
Chain of D(2) dopamine receptor (Homo sapiens) (P14416 whole entry): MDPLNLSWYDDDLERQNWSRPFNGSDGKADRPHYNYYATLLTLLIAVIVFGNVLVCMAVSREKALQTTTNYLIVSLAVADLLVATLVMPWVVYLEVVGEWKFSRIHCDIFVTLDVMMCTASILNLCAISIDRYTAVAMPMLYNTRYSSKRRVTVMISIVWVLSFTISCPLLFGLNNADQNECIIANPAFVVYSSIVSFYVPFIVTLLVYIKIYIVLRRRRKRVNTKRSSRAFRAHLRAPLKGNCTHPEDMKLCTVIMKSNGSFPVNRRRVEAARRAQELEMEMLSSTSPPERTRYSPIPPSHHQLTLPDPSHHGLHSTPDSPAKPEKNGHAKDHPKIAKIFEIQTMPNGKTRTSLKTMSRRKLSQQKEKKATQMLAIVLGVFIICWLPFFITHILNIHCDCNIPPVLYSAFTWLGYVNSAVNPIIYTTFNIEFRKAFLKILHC
Chain of Cyclin-dependent kinase 3 (Q00526 whole entry): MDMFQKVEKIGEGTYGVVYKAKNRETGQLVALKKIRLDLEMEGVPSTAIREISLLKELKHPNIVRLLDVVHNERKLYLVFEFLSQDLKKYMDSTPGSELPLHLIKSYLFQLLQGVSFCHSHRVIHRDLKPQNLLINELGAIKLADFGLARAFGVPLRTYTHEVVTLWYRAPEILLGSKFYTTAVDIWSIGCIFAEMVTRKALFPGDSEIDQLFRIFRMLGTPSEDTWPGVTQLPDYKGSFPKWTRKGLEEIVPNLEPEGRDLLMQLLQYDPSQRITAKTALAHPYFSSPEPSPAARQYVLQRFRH

## CN1C(=O)[C@@H](N2CCc3c(nn(Cc4ccccc4)c3Br)C2=O)COc2ccccc21 [TP-030-2]
[1]
  IC50: 1000 nM
[2]
  IC50: 1000 nM
[3]
  IC50: 1000 nM
[4]
  IC50: 1000 nM
[5]
  inhibition: 2%
[6]
  IC50: 1000 nM
[7]
  IC50: 1000 nM
[8]
  IC50: 1000 nM
[9]
  IC50: 1000 nM
[10]
  inhibition: 2%
[11]
  inhibition: 68%
[12]
  IC50: 1000 nM
[13]
  IC50: 1000 nM
[14]
  IC50: 1000 nM
[15]
  IC50: 1000 nM
[16]
  IC50: 1000 nM
[17]
  IC50: 1000 nM
[18]
  IC50: 1000 nM
[19]
  IC50: 1000 nM
[20]
  IC50: 1000 nM
[21]
  inhibition: 11.7%
[22]
  IC50: 1000 nM
[23]
  IC50: 1000 nM
[24]
  inhibition: 14%
[25]
  IC50: 1000 nM
[26]
  IC50: 1000 nM
[27]
  IC50: 1000 nM
[28]
  inhibition: 14.6%
[29]
  inhibition: 33.9%
[30]
  IC50: 1000 nM
[31]
  inhibition: 11%
[32]
  IC50: 1000 nM
[33]
  IC50: 1000 nM
[34]
  IC50: 1000 nM
[35]
  inhibition: 17%
[36]
  IC50: 1000 nM
[37]
  IC50: 1000 nM
[38]
  inhibition: 3%
[39]
  inhibition: 3.31%
[40]
  inhibition: -2%
[41]
  IC50: 1000 nM
[42]
  inhibition: 8.81%
